According to patent US6692880B2, “Electrophotographic toner with stable triboelectric properties” (Heidelberger Druckmaschinen AG, priority 2001, dated 2004):
Values belong to the molecule of their own block, whether it stands above or below them.

Columns and labels:
[1] = pKa values measured by titrimetry; assay type: physicochemical; settings: (a) values measured by titrimetry; read-out: pKa 1
From the text: Any acidic material having a pKa in the range of from about 2 to about 8 can be used as the first charge control agent. Acidic materials with pKa values of from 3 to 7 are particularly preferred. Acidic materials preferably contain a labile proton, such as a carboxylic, phenolic or sulfonic acid. More broadly an acid also includes compounds within the definition as proposed by G. N. Lewis, that is an acid is any material capable of accepting an electron pair from a donor molecule. The term pKa is defined as
where Ka is an inherent molecular property of an acidic compound and is called the acid dissociation constant. Ka is defined by the following equation; [formula]
In a practical sense the lower the pKa value the stronger the acid. Acids useful in this invention may have more than one acid function per molecule such as di- and tri-carboxylic or di- and tri-sulfonic acids. Further, multiple types of acid functional groups may be present in the useful molecule for example as in p-carboxybenzenesulfonic acid. One skilled in the art can readily propose other such acids based on the foregoing definitions.

[2] = obtained or extrapolated from tables in Morrison and Boyd; cited from earlier work
[3] = Charge per mass of developers after exercise periods, MECCA device; assay type: physicochemical; settings: clear polyester toner; for Fresh Developer 10 min exercise (charge values) / Fresh developer 2 min shake (charge values) / Rebuilt developer 2 min shake (charge values) / Rebuilt developer 10 min exercise (charge values): Binder C resin
[4] = 0.2 pph added acid, LLT-101 resin, 2 pph Bontron E-84
[5] = 0.2 pph adipic acid added, 0 pph Bontron E-84, Binder C
[6] = 0.2 pph adipic acid added, 2 pph Bontron E-84, Binder C
[7] = 1 pph added acid, LLT-101 resin, 2 pph Bontron E-84
[8] = 1 pph adipic acid added, 0 pph Bontron E-84, Binder C
[9] = 1 pph adipic acid added, 2 pph Bontron E-84, Binder C
[10] = 5 pph added acid, LLT-101 resin, 2 pph Bontron E-84
[11] = 5 pph adipic acid added, 0 pph Bontron E-84, Binder C
[12] = 5 pph adipic acid added, 2 pph Bontron E-84, Binder C
[13] = 0.2 pph added acid, 2 pph Bontron E-84
[14] = 1 pph added acid, 2 pph Bontron E-84
[15] = 5 pph added acid, 2 pph Bontron E-84

pKa [1]: 6.6
SMILES: CC1=NN(c2ccccc2)C(=O)C1 [MPP, 2,4-dihydro-5-methyl-2-phenyl-3H-pyrazol-3-one]

SMILES: O=C(O)c1ccccc1C(=O)O [phthalic]
pKa 1 [2]: 3.0
pKa 2 [2]: 5.4

SMILES: CC(C)(C)c1cc(C(=O)O)cc(C(C)(C)C)c1 [3,5-di-t-butylbenzoic, 3,5-di-t-butylbenzoic acid]
pKa 1 [2]: 4.6

Fresh Developer 10 min exercise (charge per mass) [3, 4]: −63.2 μC/g
Fresh developer 2 min shake (charge per mass) [3, 4]: −25.9 μC/g
Rebuilt developer 2 min shake (charge per mass) [3, 4]: −56.9 μC/g
Rebuilt developer 10 min exercise (charge per mass) [3, 4]: −57.7 μC/g
Fresh Developer 10 min exercise (charge per mass) [3, 5]: −30.1 μC/g
Fresh developer 2 min shake (charge per mass) [3, 5]: −10.0 μC/g
Rebuilt developer 2 min shake (charge per mass) [3, 5]: −7.1 μC/g
Rebuilt developer 10 min exercise (charge per mass) [3, 5]: −17.3 μC/g
Fresh Developer 10 min exercise (charge per mass) [3, 6]: −64.2 μC/g
Fresh developer 2 min shake (charge per mass) [3, 6]: −29.6 μC/g
Rebuilt developer 2 min shake (charge per mass) [3, 6]: −39.4 μC/g
Rebuilt developer 10 min exercise (charge per mass) [3, 6]: −49.6 μC/g
Fresh Developer 10 min exercise (charge per mass) [3, 7]: −40.9 μC/g
Fresh developer 2 min shake (charge per mass) [3, 7]: −23.7 μC/g
Rebuilt developer 2 min shake (charge per mass) [3, 7]: −27.1 μC/g
Rebuilt developer 10 min exercise (charge per mass) [3, 7]: −28.8 μC/g
Fresh Developer 10 min exercise (charge per mass) [3, 8]: −27.6 μC/g
Fresh developer 2 min shake (charge per mass) [3, 8]: −10.1 μC/g
Rebuilt developer 2 min shake (charge per mass) [3, 8]: −4.6 μC/g
Rebuilt developer 10 min exercise (charge per mass) [3, 8]: −12.5 μC/g
Fresh Developer 10 min exercise (charge per mass) [3, 9]: −41.8 μC/g
Fresh developer 2 min shake (charge per mass) [3, 9]: −30.4 μC/g
Rebuilt developer 2 min shake (charge per mass) [3, 9]: −17.1 μC/g
Rebuilt developer 10 min exercise (charge per mass) [3, 9]: −32.3 μC/g
Fresh Developer 10 min exercise (charge per mass) [3, 10]: −25.8 μC/g
Fresh developer 2 min shake (charge per mass) [3, 10]: −18.6 μC/g
Rebuilt developer 2 min shake (charge per mass) [3, 10]: −17.9 μC/g
Rebuilt developer 10 min exercise (charge per mass) [3, 10]: −24.5 μC/g
Fresh Developer 10 min exercise (charge per mass) [3, 11]: −28.4 μC/g
Fresh developer 2 min shake (charge per mass) [3, 11]: −10.4 μC/g
Rebuilt developer 2 min shake (charge per mass) [3, 11]: −5.3 μC/g
Rebuilt developer 10 min exercise (charge per mass) [3, 11]: −11.6 μC/g
Fresh Developer 10 min exercise (charge per mass) [3, 12]: −35.7 μC/g
Fresh developer 2 min shake (charge per mass) [3, 12]: −18.5 μC/g
Rebuilt developer 2 min shake (charge per mass) [3, 12]: −11.2 μC/g
Rebuilt developer 10 min exercise (charge per mass) [3, 12]: −29.2 μC/g
SMILES: O=C(O)CCCCC(=O)O [Adipic acid]
pKa 1 [2]: 4.5

SMILES: O=C(O)CCCC(=O)O [Glutaric acid]
Fresh Developer 10 min exercise (charge values) [3, 13]: −66.2 μC/g
Fresh developer 2 min shake (charge values) [3, 13]: −26.5 μC/g
Rebuilt developer 2 min shake (charge values) [3, 13]: −45.7 μC/g
Rebuilt developer 10 min exercise (charge values) [3, 13]: −58.1 μC/g
Fresh Developer 10 min exercise (charge values) [3, 14]: −42.5 μC/g
Fresh developer 2 min shake (charge values) [3, 14]: −16.6 μC/g
Rebuilt developer 2 min shake (charge values) [3, 14]: −15.6 μC/g
Rebuilt developer 10 min exercise (charge values) [3, 14]: −30.1 μC/g
Fresh Developer 10 min exercise (charge values) [3, 15]: −11.8 μC/g
Fresh developer 2 min shake (charge values) [3, 15]: −6.2 μC/g
Rebuilt developer 2 min shake (charge values) [3, 15]: −4.5 μC/g
Rebuilt developer 10 min exercise (charge values) [3, 15]: −13.3 μC/g
pKa 2 [2]: 5.4

Fresh Developer 10 min exercise (charge values) [3, 13]: −88.1 μC/g
Fresh developer 2 min shake (charge values) [3, 13]: −44.3 μC/g
Rebuilt developer 2 min shake (charge values) [3, 13]: −60.1 μC/g
Rebuilt developer 10 min exercise (charge values) [3, 13]: −77.5 μC/g
Fresh Developer 10 min exercise (charge per mass) [3, 4]: −96.0 μC/g
Fresh developer 2 min shake (charge per mass) [3, 4]: −40.9 μC/g
Rebuilt developer 2 min shake (charge per mass) [3, 4]: −83.5 μC/g
Rebuilt developer 10 min exercise (charge per mass) [3, 4]: −110.1 μC/g
Fresh Developer 10 min exercise (charge values) [3, 14]: −104.5 μC/g
Fresh developer 2 min shake (charge values) [3, 14]: −43.7 μC/g
Rebuilt developer 2 min shake (charge values) [3, 14]: −69.6 μC/g
Rebuilt developer 10 min exercise (charge values) [3, 14]: −90.8 μC/g
Fresh Developer 10 min exercise (charge per mass) [3, 7]: −125.5 μC/g
Fresh developer 2 min shake (charge per mass) [3, 7]: −52.5 μC/g
Rebuilt developer 2 min shake (charge per mass) [3, 7]: −114.0 μC/g
Rebuilt developer 10 min exercise (charge per mass) [3, 7]: −123.0 μC/g
Fresh Developer 10 min exercise (charge values) [3, 15]: bicharged
Fresh developer 2 min shake (charge values) [3, 15]: −14.7 μC/g
Rebuilt developer 2 min shake (charge values) [3, 15]: −35.0 μC/g
Rebuilt developer 10 min exercise (charge values) [3, 15]: bicharged
Fresh Developer 10 min exercise (charge per mass) [3, 10]: bicharged
Fresh developer 2 min shake (charge per mass) [3, 10]: −8.7 μC/g
Rebuilt developer 2 min shake (charge per mass) [3, 10]: −12.1 μC/g
Rebuilt developer 10 min exercise (charge per mass) [3, 10]: −6.2 μC/g
SMILES: CCCCCCCCCCCC(=O)O [Lauric acid]

pKa [1]: 3.5
SMILES: CCOC(=O)/C=C/C(=O)O [fumaric acid monoethyl ester]

Fresh Developer 10 min exercise (charge values) [3, 13]: −58.9 μC/g
Fresh developer 2 min shake (charge values) [3, 13]: −25.5 μC/g
Rebuilt developer 2 min shake (charge values) [3, 13]: −45.3 μC/g
Rebuilt developer 10 min exercise (charge values) [3, 13]: −49.8 μC/g
Fresh Developer 10 min exercise (charge per mass) [3, 4]: −37.2 μC/g
Fresh developer 2 min shake (charge per mass) [3, 4]: −30.3 μC/g
Rebuilt developer 2 min shake (charge per mass) [3, 4]: −43.9 μC/g
Rebuilt developer 10 min exercise (charge per mass) [3, 4]: −35.6 μC/g
Fresh Developer 10 min exercise (charge values) [3, 14]: −46.9 μC/g
Fresh developer 2 min shake (charge values) [3, 14]: −24.4 μC/g
Rebuilt developer 2 min shake (charge values) [3, 14]: −34.4 μC/g
Rebuilt developer 10 min exercise (charge values) [3, 14]: −37.9 μC/g
Fresh Developer 10 min exercise (charge per mass) [3, 7]: −19.7 μC/g
Fresh developer 2 min shake (charge per mass) [3, 7]: −34.9 μC/g
Rebuilt developer 2 min shake (charge per mass) [3, 7]: −15.2 μC/g
Rebuilt developer 10 min exercise (charge per mass) [3, 7]: −12.9 μC/g
Fresh Developer 10 min exercise (charge values) [3, 15]: −13.8 μC/g
Fresh developer 2 min shake (charge values) [3, 15]: −28.3 μC/g
Rebuilt developer 2 min shake (charge values) [3, 15]: −16.5 μC/g
Rebuilt developer 10 min exercise (charge values) [3, 15]: −13.3 μC/g
Fresh Developer 10 min exercise (charge per mass) [3, 10]: −10.0 μC/g
Fresh developer 2 min shake (charge per mass) [3, 10]: −32.8 μC/g
Rebuilt developer 2 min shake (charge per mass) [3, 10]: −18.2 μC/g
Rebuilt developer 10 min exercise (charge per mass) [3, 10]: −5.8 μC/g
SMILES: O=C(O)c1ccc(C(=O)O)cc1 [Terephthalic acid]

SMILES: C=C(CC(=O)O)C(=O)O [Itaconic acid]
Fresh Developer 10 min exercise (charge values) [3, 13]: −63.1 μC/g
Fresh developer 2 min shake (charge values) [3, 13]: −20.6 μC/g
Rebuilt developer 2 min shake (charge values) [3, 13]: −41.3 μC/g
Rebuilt developer 10 min exercise (charge values) [3, 13]: −49.7 μC/g
Fresh Developer 10 min exercise (charge values) [3, 14]: −33.7 μC/g
Fresh developer 2 min shake (charge values) [3, 14]: −13.6 μC/g
Rebuilt developer 2 min shake (charge values) [3, 14]: −10.2 μC/g
Rebuilt developer 10 min exercise (charge values) [3, 14]: −22.6 μC/g
Fresh Developer 10 min exercise (charge values) [3, 15]: −24.1 μC/g
Fresh developer 2 min shake (charge values) [3, 15]: −11.9 μC/g
Rebuilt developer 2 min shake (charge values) [3, 15]: −6.4 μC/g
Rebuilt developer 10 min exercise (charge values) [3, 15]: −18.7 μC/g

Fresh Developer 10 min exercise (charge values) [3, 13]: −78.1 μC/g
Fresh developer 2 min shake (charge values) [3, 13]: −35.3 μC/g
Rebuilt developer 2 min shake (charge values) [3, 13]: −63.2 μC/g
Rebuilt developer 10 min exercise (charge values) [3, 13]: −72.1 μC/g
Fresh Developer 10 min exercise (charge values) [3, 14]: −84.8 μC/g
Fresh developer 2 min shake (charge values) [3, 14]: −40.0 μC/g
Rebuilt developer 2 min shake (charge values) [3, 14]: −56.8 μC/g
Rebuilt developer 10 min exercise (charge values) [3, 14]: −67.7 μC/g
Fresh Developer 10 min exercise (charge values) [3, 15]: −71.6 μC/g
Fresh developer 2 min shake (charge values) [3, 15]: −36.9 μC/g
Rebuilt developer 2 min shake (charge values) [3, 15]: −42.6 μC/g
Rebuilt developer 10 min exercise (charge values) [3, 15]: −60.5 μC/g
SMILES: Nc1ccc(C(=O)O)cc1 [4-aminobenzoic acid]

Fresh Developer 10 min exercise (charge values) [3, 13]: −65.5 μC/g
Fresh developer 2 min shake (charge values) [3, 13]: −22.7 μC/g
Rebuilt developer 2 min shake (charge values) [3, 13]: −46.5 μC/g
Rebuilt developer 10 min exercise (charge values) [3, 13]: −62.0 μC/g
Fresh Developer 10 min exercise (charge values) [3, 14]: −50.5 μC/g
Fresh developer 2 min shake (charge values) [3, 14]: −21.0 μC/g
Rebuilt developer 2 min shake (charge values) [3, 14]: −25.5 μC/g
Rebuilt developer 10 min exercise (charge values) [3, 14]: −46.5 μC/g
Fresh Developer 10 min exercise (charge values) [3, 15]: −41.1 μC/g
Fresh developer 2 min shake (charge values) [3, 15]: −17.4 μC/g
Rebuilt developer 2 min shake (charge values) [3, 15]: −17.0 μC/g
Rebuilt developer 10 min exercise (charge values) [3, 15]: −42.8 μC/g
SMILES: O=C(O)c1ccccc1O [Salicylic acid]
